Paper PMC5088049 (Pharmacogenetics and genomics, 2016)

Columns and labels:
AKR1C2 Phe46Tyr [1] = biological target: T1, AKR1C2 Phe46Tyr (Homo sapiens, UniProt P52895, F46Y); details: relative to wildtype AKR1C2; cited from earlier work
T1 sequence (P52895 1-323 F46Y): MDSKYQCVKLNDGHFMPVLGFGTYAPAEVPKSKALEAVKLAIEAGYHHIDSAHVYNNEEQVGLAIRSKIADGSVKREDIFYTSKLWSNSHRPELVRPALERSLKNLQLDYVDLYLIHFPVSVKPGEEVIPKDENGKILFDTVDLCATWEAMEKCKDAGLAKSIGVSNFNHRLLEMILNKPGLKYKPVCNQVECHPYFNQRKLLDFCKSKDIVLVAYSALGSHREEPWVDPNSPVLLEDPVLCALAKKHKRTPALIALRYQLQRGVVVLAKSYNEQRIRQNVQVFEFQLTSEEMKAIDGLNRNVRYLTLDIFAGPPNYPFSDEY

AKR1C2 Phe46Tyr [2] = biological target: T1, AKR1C2 Phe46Tyr; details: cited from earlier work
aromatase [3] = biological target: T2, aromatase (Homo sapiens, UniProt P11511); assay: Inhibition of aromatase-mediated estrogen formation; type: biochemical; details: unpublished observations
T2 sequence (P11511 1-503): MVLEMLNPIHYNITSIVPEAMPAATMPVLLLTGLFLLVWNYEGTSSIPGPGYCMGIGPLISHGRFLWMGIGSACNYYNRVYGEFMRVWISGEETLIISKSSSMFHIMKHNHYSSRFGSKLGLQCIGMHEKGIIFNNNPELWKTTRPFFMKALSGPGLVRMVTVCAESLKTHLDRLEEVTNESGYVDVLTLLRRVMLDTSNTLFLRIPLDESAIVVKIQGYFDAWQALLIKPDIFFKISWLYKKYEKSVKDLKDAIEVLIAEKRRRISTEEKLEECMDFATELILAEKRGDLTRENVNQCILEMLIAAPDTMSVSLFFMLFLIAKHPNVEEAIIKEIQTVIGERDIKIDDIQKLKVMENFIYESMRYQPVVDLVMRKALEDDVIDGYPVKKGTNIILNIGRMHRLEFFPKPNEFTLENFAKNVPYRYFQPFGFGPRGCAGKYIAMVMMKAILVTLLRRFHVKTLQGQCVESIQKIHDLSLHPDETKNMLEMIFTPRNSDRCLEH

[4] = cited from earlier work
aromatase [5] = biological target: T2, aromatase; details: aromatase-mediated estrogen formation; cited from earlier work
not read = substrate: C=C1C[C@@H]2[C@H](CC[C@]3(C)C(=O)CC[C@@H]23)[C@@]2(C)C=CC(=O)C=C12; assay: not read; details: other: AKR1C2 Phe46Tyr (rs2854482); 17β-DHE formation; 37.0 °C

OC1Cc2cccc3cccc1c23 (stereo not shown) [1-acenaphthenol]
decrease in overall AKR1C2 activity by Phe46Tyr substitution (AKR1C2 Phe46Tyr [1]): approximately 30%

C[C@]12CCC(=O)C[C@@H]1CC[C@@H]1[C@@H]2CC[C@]2(C)[C@@H](O)CC[C@@H]12 [5α-DHT]
decrease in VMAX for reduction relative to wildtype enzyme (AKR1C2 Phe46Tyr [2]): 40%

C=C1C[C@H]2[C@@H]3CC[C@@H](O)[C@@]3(C)CC[C@@H]2[C@@]2(C)C=CC(=O)C=C12 [17α-DHE, 17α-dihydroexemestane]
aromatase-inhibiting properties (aromatase [3]): no appreciable aromatase-inhibiting properties

C=C1C[C@H]2[C@@H]3CC[C@H](O)[C@@]3(C)CC[C@@H]2[C@@]2(C)C=CC(=O)C=C12 [17β-DHE, 17β-dihydroexemestane]
17β-DHE concentration relative to parent drug in plasma ([4]; healthy individuals taking EXE): 35–40% | variation of amount of 17β-DHE relative to EXE in human plasma ([4]; pool of three participants): five-fold | aromatase inhibition potency (aromatase [5]): potency similar to its parent compound EXE

B1: AKR1C2 Phe46Tyr (Homo sapiens; F46Y) (protein)
chain: MDSKYQCVKLNDGHFMPVLGFGTYAPAEVPKSKALEAVKLAIEAGYHHIDSAHVYNNEEQVGLAIRSKIADGSVKREDIFYTSKLWSNSHRPELVRPALERSLKNLQLDYVDLYLIHFPVSVKPGEEVIPKDENGKILFDTVDLCATWEAMEKCKDAGLAKSIGVSNFNHRLLEMILNKPGLKYKPVCNQVECHPYFNQRKLLDFCKSKDIVLVAYSALGSHREEPWVDPNSPVLLEDPVLCALAKKHKRTPALIALRYQLQRGVVVLAKSYNEQRIRQNVQVFEFQLTSEEMKAIDGLNRNVRYLTLDIFAGPPNYPFSDEY
Km (not read): 13.5 ± 2.8 µM
